Test results as given in patent US8247211B2, “Glycopeptide antibiotics” (American Cyanamid Company, priority 2001, dated 2012).

How the values were obtained:
Test in all cases: In vitro antibacterial evaluation: minimum inhibitory concentration (MIC), broth dilution method
Type in all cases: cell-based
Staphylococcus sp. = settings: for MIC Coagulase Negative Staphylococcus (GC 4537): strain GC 4537; for MIC Coagulase Negative Staphylococcus (GC 4538): strain GC 4538; for MIC Coagulase Negative Staphylococcus (GC 4547): strain GC 4547; for MIC Staphylococcus aureus-SMITH (GC 4536): strain SMITH GC 4536; for MIC Staphylococcus aureus-SMITH (GC 4543): strain GC 4543; for MIC Staphylococcus haemolyticus (GC 4546): strain GC 4546; for MIC Coagulase Negative Staphylococcus (GC 4548): strain GC 4548; for MIC Coagulase Negative Staphylococcus (GC 4549): strain GC 4549; for MIC Coagulase Negative Staphylococcus (GC 4551): strain GC 4551; for MIC Coagulase Negative Staphylococcus (ID-3941): strain ID-3941
Description: (§1) The minimum inhibitory concentration (MIC), the lowest concentration of the antibiotic which inhibits growth of the test organism, is determined by the broth dilution method using Muller-Hinton II […] (Baltimore Biological Laboratories) following the recommendations of the National Committee for Clinical Laboratory Standards [Methods for dilution antimicrobial susceptibility tests for bacteria that grow aerobically, approved standard M7-A2, National Committee for Clinical Laboratory Standards, Villanova, Pa].
(§2) An inoculum level of 5×10^5 CFU/mL, and a range of antibiotic concentrations (64-0.06 μg/mL) is used. […] The test organisms include a spectrum of Gram-positive bacteria comprised of Staphylococcus sp., Streptococcus sp. and Enterococcus sp. These organisms include recent clinical isolates that are resistant to methicillin, penicillin and/or vancomycin.

Enterococcus sp. = system: Enterococcus sp.
Description: as §1, §2

Escherichia coli = settings: for MIC Escherichia coli (GC 4559): strain GC 4559
Description: as §1, §2

Streptococcus sp. = system: Streptococcus sp.
Description: as §1, §2

[1] = broth dilution, 18 hours at 35° C.
[2] = Enterococcus faecalis (GC 2242), broth dilution, 18 hours at 35° C.
[3] = broth dilution, inoculum 5×10^5 CFU/mL, 18 hours at 35° C.
[4] = Enterococcus avium (GC 4558), 18 hours at 35° C.

CCCCCC(=O)OCC1OC(N2C(=N)NCC2C(O)C2NC(=O)C(C(O)C3CNC(=N)N3)NC(=O)C(Cc3ccc(OC4OC(CO)C(OC5OC(CO)C(O)C(O)C5O)C(O)C4O)cc3)NC(=O)C(C(C)c3ccccc3)NC(=O)CNC(=O)C(CO)NC2=O)C(O)C(O)C1O (stereo not shown) [Example 95]
8 µg/mL: MIC Escherichia coli (GC 4560) (Escherichia coli; strain GC 4560)
>64 µg/mL: MIC Staphylococcus aureus (ATCC 29213) (Staphylococcus sp.; [1]) | MIC Staphylococcus aureus (GC 1131) (Staphylococcus sp.; [1]) | MIC Staphylococcus aureus (GC 4535) (Staphylococcus sp.; [1]) | MIC Staphylococcus aureus SMITH (GC 4536) (Staphylococcus sp.; [1]) | MIC Coagulase Negative Staphylococcus (GC 4537) (Staphylococcus sp.) | MIC Coagulase Negative Staphylococcus (GC 4538) (Staphylococcus sp.) | MIC Coagulase Negative Staphylococcus (GC 4547) (Staphylococcus sp.) | MIC Staphylococcus aureus-SMITH (GC 4536) (Staphylococcus sp.; [1]) | MIC Enterococcus faecalis (GC 2242) (Enterococcus sp.; [2]) | MIC Enterococcus faecalis (ATCC 29212) (Enterococcus sp.; strain ATCC 29212) | MIC Enterococcus faecalis (GC 2242) (Enterococcus sp.; strain GC 2242) | MIC Enterococcus faecalis (GC 4552) (Enterococcus sp.; strain GC 4552) | MIC Escherichia coli (GC 4559) (Escherichia coli)

CCCCCC(=O)OCC1OC(Oc2ccc(CC3NC(=O)C(C(C)c4ccccc4)NC(=O)CNC(=O)C(CO)NC(=O)C(C(O)C4CNC(=N)N4C4OC(CO)C(O)C(O)C4O)NC(=O)C(C(O)C4CNC(=N)N4)NC3=O)cc2)C(O)C(O)C1OC1OC(CO)C(O)C(O)C1O (stereo not drawn) [Example 95a, Cyclo[glycyl-β-methylphenylalanyl-O-(6-O-hexanoyl-4-O-hexopyranosylhexopyranosyl)-tyrosyl-3-(2-iminoimidazolidin-4-yl)seryl-3-(3-hexopyranosyl-2-iminoimidazolidin-4-yl)-serylseryl]]
4 µg/mL: MIC Staphylococcus aureus (ATCC 29213) (Staphylococcus sp.; [1]) | MIC Staphylococcus aureus (GC 1131) (Staphylococcus sp.; [1]) | MIC Staphylococcus aureus SMITH (GC 4536) (Staphylococcus sp.; [1]) | MIC Coagulase Negative Staphylococcus (GC 4538) (Staphylococcus sp.) | MIC Coagulase Negative Staphylococcus (GC 4547) (Staphylococcus sp.) | MIC Staphylococcus aureus-SMITH (GC 4536) (Staphylococcus sp.; [1])
16 µg/mL: MIC Enterococcus faecalis (GC 2242) (Enterococcus sp.; [2]) | MIC Enterococcus faecalis (GC 2242) (Enterococcus sp.; strain GC 2242)
32 µg/mL: MIC Enterococcus faecalis (ATCC 29212) (Enterococcus sp.; strain ATCC 29212) | MIC Enterococcus faecalis (GC 4552) (Enterococcus sp.; strain GC 4552)
2 µg/mL: MIC Escherichia coli (GC 4560) (Escherichia coli; strain GC 4560)
8 µg/mL: MIC Staphylococcus aureus (GC 4535) (Staphylococcus sp.; [1]) | MIC Coagulase Negative Staphylococcus (GC 4537) (Staphylococcus sp.)
>64 µg/mL: MIC Escherichia coli (GC 4559) (Escherichia coli)

CC(c1ccccc1)C1NC(=O)CNC(=O)C(CO)NC(=O)C(C(O)C2CNC(=N)N2C2OC(CO)C(O)C(O)C2O)NC(=O)C(C(O)C2CNC(=N)N2)NC(=O)C(Cc2ccc(OC3OC(COC(=O)C(c4ccccc4)c4ccccc4)C(OC4OC(CO)C(O)C(O)C4O)C(O)C3O)cc2)NC1=O (stereo not drawn) [Example 96b, Cyclo[glycyl-β-methylphenylalanyl-O-[6-O-(diphenylacetyl)-4-O-hexopyranosylhexopyranosyl]tyrosyl-3-(2-iminoimidazolidin-4-yl)seryl-3-(3-hexopyranosyl-2-iminoimidazolidin-4-yl)serylseryl]]
1 µg/mL: MIC Staphylococcus aureus (ATCC 29213) (Staphylococcus sp.; [1]) | MIC Staphylococcus aureus (GC 4541) (Staphylococcus sp.; [1]) | MIC Staphylococcus aureus (GC 4545) (Staphylococcus sp.; [1]) | MIC Staphylococcus haemolyticus (GC 4546) (Staphylococcus sp.) | MIC Staphylococcus haemolyticus (GC 4546) (Staphylococcus sp.; [1]) | MIC Coagulase Negative Staphylococcus (GC 4547) (Staphylococcus sp.) | MIC Coagulase Negative Staphylococcus (GC 4547) (Staphylococcus sp.; [1]) | MIC Enterococcus faecium (GC 4557) (Enterococcus sp.; strain GC 4557)
0.25 µg/mL: MIC Streptococcus agalactiae (GC 4564) (Streptococcus sp.; strain GC 4564) | MIC Streptococcus pyogenes (ID-3187) (Streptococcus sp.; strain ID-3187)
8 µg/mL: MIC Enterococcus faecalis (ATCC 29212) (Enterococcus sp.; strain ATCC 29212) | MIC Enterococcus faecium (GC 2243) (Enterococcus sp.; strain GC 2243) | MIC Enterococcus faecalis (GC 4552) (Enterococcus sp.; strain GC 4552) | MIC Enterococcus faecalis (GC 4553) (Enterococcus sp.; strain GC 4553) | MIC Enterococcus faecalis (GC 4554) (Enterococcus sp.; strain GC 4554) | MIC Enterococcus faecium (GC 4556) (Enterococcus sp.; strain GC 4556)
2 µg/mL: MIC Staphylococcus aureus (GC 1131) (Staphylococcus sp.; [1]) | MIC Staphylococcus aureus (GC 4542) (Staphylococcus sp.; [1]) | MIC Staphylococcus aureus (GC 4544) (Staphylococcus sp.; [1]) | MIC Staphylococcus aureus-SMITH (GC 4543) (Staphylococcus sp.; 18 hours at 35° C.) | MIC Staphylococcus aureus-SMITH (GC 4543) (Staphylococcus sp.; [1]) | MIC Coagulase Negative Staphylococcus (GC 4551) (Staphylococcus sp.) | MIC Coagulase Negative Staphylococcus (GC 4551) (Staphylococcus sp.; [1])
0.5 µg/mL: MIC Coagulase Negative Staphylococcus (GC 4548) (Staphylococcus sp.) | MIC Coagulase Negative Staphylococcus (GC 4548) (Staphylococcus sp.; [1]) | MIC Coagulase Negative Staphylococcus (GC 4549) (Staphylococcus sp.) | MIC Coagulase Negative Staphylococcus (GC 4549) (Staphylococcus sp.; [1]) | MIC Coagulase Negative Staphylococcus (ID-3941) (Staphylococcus sp.) | MIC Coagulase Negative Staphylococcus (ID-3941) (Staphylococcus sp.; [1])
<0.12 µg/mL: MIC Streptococcus pneumoniae (GC 4565) (Streptococcus sp.; strain GC 4565)
4 µg/mL: MIC Enterococcus faecalis (GC 2242) (Enterococcus sp.; strain GC 2242) | MIC Enterococcus avium (GC 4558) (Enterococcus sp.; strain GC 4558)

CC(c1ccccc1)C1NC(=O)CNC(=O)C(CO)NC(=O)C(C(O)C2CNC(=N)N2C2OC(CO)C(O)C(O)C2O)NC(=O)C(C(O)C2CNC(=N)N2)NC(=O)C(Cc2ccc(OC3OC(CO)C(OC4OC5COC(c6ccc(C(=O)c7cc(I)c(I)c(I)c7)cc6)OC5C(O)C4O)C(O)C3O)cc2)NC1=O (stereo not shown) [Example 187]
32 µg/mL: MIC Staphylococcus aureus (GC 3053) (Staphylococcus sp.; strain GC 3053) | MIC Coagulase Negative Staphylococcus (GC 4551) (Staphylococcus sp.) | MIC Coagulase Negative Staphylococcus (GC 6257) (Staphylococcus sp.; strain GC 6257) | MIC Enterococcus faecalis (GC 4553) (Enterococcus sp.; Enterococcus faecalis (GC 4553), 18 hours at 35° C.) | MIC Enterococcus faecalis (GC 4553) (Enterococcus sp.; [3])
16 µg/mL: MIC Coagulase Negative Staphylococcus (GC 4548) (Staphylococcus sp.) | MIC Enterococcus avium (GC 4558) (Enterococcus sp.; [4]) | MIC Enterococcus faecalis (GC 2691) (Enterococcus sp.; Enterococcus faecalis (GC 2691), 18 hours at 35° C.) | MIC Enterococcus faecalis (GC 6189) (Enterococcus sp.; Enterococcus faecalis (GC 6189), 18 hours at 35° C.) | MIC Enterococcus faecium (GC 2243) (Enterococcus sp.; Enterococcus faecium (GC 2243), 18 hours at 35° C.) | MIC Enterococcus faecium (GC 4557) (Enterococcus sp.; Enterococcus faecium (GC 4557), 18 hours at 35° C.) | MIC Enterococcus avium (GC 4558) (Enterococcus sp.; [3]) | MIC Enterococcus faecalis (GC 2691) (Enterococcus sp.; [3]) | MIC Enterococcus faecalis (GC 6189) (Enterococcus sp.; [3]) | MIC Enterococcus faecium (GC 2243) (Enterococcus sp.; [3]) | MIC Enterococcus faecium (GC 4557) (Enterococcus sp.; [3])
0.5 µg/mL: MIC Streptococcus pyogenes (GC 4563) (Streptococcus sp.; Streptococcus pyogenes (GC 4563), 18 hours at 35° C.) | MIC Streptococcus pyogenes (GC 4563) (Streptococcus sp.; [3])
64 µg/mL: MIC Staphylococcus aureus (ATCC 29213) (Staphylococcus sp.; strain ATCC 29213) | MIC Staphylococcus aureus (GC 1131) (Staphylococcus sp.; strain GC 1131) | MIC Staphylococcus aureus (GC 3051) (Staphylococcus sp.; strain GC 3051) | MIC Staphylococcus aureus (GC 4541) (Staphylococcus sp.; strain GC 4541) | MIC Staphylococcus aureus (GC 4542) (Staphylococcus sp.; strain GC 4542) | MIC Staphylococcus aureus-SMITH (GC 4543) (Staphylococcus sp.) | MIC Staphylococcus aureus (GC 4544) (Staphylococcus sp.; strain GC 4544) | MIC Staphylococcus aureus (GC 4545) (Staphylococcus sp.; strain GC 4545) | MIC Coagulase Negative Staphylococcus (GC 4549) (Staphylococcus sp.) | MIC Enterococcus faecalis (ATCC 29212) (Enterococcus sp.; Enterococcus faecalis (ATCC 29212), 18 hours at 35° C.) | MIC Enterococcus faecalis (GC 2242) (Enterococcus sp.; Enterococcus faecalis (GC 2242), 18 hours at 35° C.) | MIC Enterococcus faecalis (GC 4552) (Enterococcus sp.; Enterococcus faecalis (GC 4552), 18 hours at 35° C.) | MIC Enterococcus faecalis (GC 4554) (Enterococcus sp.; Enterococcus faecalis (GC 4554), 18 hours at 35° C.) | MIC Enterococcus faecalis (ATCC 29212) (Enterococcus sp.; [3]) | MIC Enterococcus faecalis (GC 2242) (Enterococcus sp.; [3]) | MIC Enterococcus faecalis (GC 4552) (Enterococcus sp.; [3]) | MIC Enterococcus faecalis (GC 4554) (Enterococcus sp.; [3])
<0.12 µg/mL: MIC Streptococcus agalactiae (GC 4564) (Streptococcus sp.; Streptococcus agalactiae (GC 4564), 18 hours at 35° C.) | MIC Streptococcus pneumoniae (ATCC 6301) (Streptococcus sp.; Streptococcus pneumoniae (ATCC 6301), 18 hours at 35° C.) | MIC Streptococcus pneumoniae (GC 1894) (Streptococcus sp.; Streptococcus pneumoniae (GC 1894), 18 hours at 35° C.) | MIC Streptococcus pneumoniae (GC 4565) (Streptococcus sp.; Streptococcus pneumoniae (GC 4565), 18 hours at 35° C.) | MIC Streptococcus agalactiae (GC 4564) (Streptococcus sp.; [3]) | MIC Streptococcus pneumoniae (ATCC 6301) (Streptococcus sp.; [3]) | MIC Streptococcus pneumoniae (GC 1894) (Streptococcus sp.; [3]) | MIC Streptococcus pneumoniae (GC 4565) (Streptococcus sp.; [3])

CC(c1ccccc1)C1NC(=O)CNC(=O)C(CO)NC(=O)C(C(O)C2CNC(=N)N2C2OC(CO)C(O)C3OC(C)(C)OC32)NC(=O)C(C(O)C2CNC(=N)N2)NC(=O)C(Cc2ccc(OC3OC(CO)C(OC4OC5COC(C)(C)OC5C5OC(C)(C)OC45)C4OC(C)(C)OC34)cc2)NC1=O (stereo not drawn) [Example 229b, Cyclo[glycyl-β-methylphenylalanyl-O-[2,3-O-isopropylidene-4-O-(2,3:4,6-di-O-isopropylidene-hexopyranosyl)hexopyranosyl]tyrosyl-3-(2-iminoimidazolidin-4-yl)seryl-3-[2-imino-(2,3-O-isopropylidenehexopyranosyl)imidazolidin-4-yl]serylseryl]]
32 µg/mL: MIC Escherichia coli (GC 4560) (Escherichia coli; Escherichia coli (GC 4560), 18 hours at 35° C.)
64 µg/mL: MIC Enterococcus avium (GC 4558) (Enterococcus sp.; [4]) | MIC Enterococcus avium (GC 4558) (Enterococcus sp.; [3])
